Source: article PMC11277004, “Di- and Triselenoesters—Promising Drug Candidates for the Future Therapy of Triple-Negative Breast Cancer” (International Journal of Molecular Sciences, 2024)
Read-outs that look alike come from different tables or passages of the source.

Experiments:
[1] = tested on: MCF-10A normal human breast epithelial cells; assay: DNA biosynthesis assay ([3H]-thymidine incorporation), MCF-10A; assay type: cell-based; settings: read-out: IC50, DNA biosynthesis
Procedure: The study of the antiproliferative properties (intensity of [^3H]-thymidine incorporation into cell DNA) of the tested derivatives against tested cell lines (MCF-7, MDA-MB-231, MCF-10A) was performed after 24 h incubation with varied concentrations of the tested compounds in the medium (0.5–5 µM) in 6-well plates (baseline seeding density: 5 × 10^5 cells/well). After 24 h the medium was removed, the cells were washed with PBS (Corning, Kennebunk, ME, USA), and a fresh medium was added. After that, the cells were treated with 0.5 µCi of tritium-labeled thymidine (specific activity 7 Ci/mmol) by incubating them with this compound for 4 h under the same conditions as the cell culture. In the first step, the medium was removed, and the cell monolayer was washed twice with 1 mL of 0.05 M Tris-HCl buffer pH 7.4 containing 0.11 M NaCl. To denature proteins, the cells were washed twice with 1 mL of 5% trichloroacetic acid (TCA) solution. Finally, cell lysis was performed by adding 1 mL of 0.1 M sodium hydroxide (NaOH) solution containing 1% sodium dodecyl sulfate (SDS) to each well. After five minutes, the obtained cell lysates were transferred to scintillation vials with 2 mL of scintillation fluid added to them beforehand. Radioactivity was measured using the Scintillation Counter 1900 TR, TRI-CARB (Packard, Perkin Elmer, Inc., San Jose, CA, USA). The intensity of DNA biosynthesis in the analyzed cells was expressed in terms of dpm/well. The result of the radioactivity measurement in the control cells (without the addition of tested compounds) was taken as 100%, while the values of cells incubated with the tested compounds were presented as a percentage of the control value.

Bax = Bax protein level by flow cytometry, MDA-MB-231; assay type: cell-based, human; settings: 24 h
Procedure: (§1) For this purpose, Akt (PE), Bax (FITC), Bcl-2 (Alexa Fluor® 647), LC3A/B (Alexa Fluor® 488), and p53 (Alexa Fluor® 488) antibodies conjugated to different fluorochromes (all from Cell Signaling Technology, Beverly, MA, USA) were utilized. Each assay was performed according to the manufacturer's protocol available on their website. After incubation with the tested compounds, the cells were centrifuged, resuspended in 4% formaldehyde (100 μL/1 × 10^6 cells), and fixed for 15 min at room temperature. Afterward, to remove the formaldehyde, the cells were washed by centrifugation with excess PBS and the permeabilization step was triggered. For this purpose, ice-cold 90% methanol was added to the pre-chilled cell pellet, gently vortexed, and incubated for 1 h on ice. Later, the cells were washed by centrifugation with excess PBS again, resuspended in 100 μL of 1:100 diluted primary antibody (stain buffer was used for dilution), and incubated for 1 h at room temperature in the dark. After incubation, the cells were washed, resuspended in 300 μL PBS, and immediately tested with a flow cytometer (BD FACSCanto II, BD Biosciences Systems, San Jose, CA, USA; 10,000 events measured). The obtained results were analyzed using the FACSDiva 6.0 software (BD Biosciences Systems, San Jose, CA, USA). In the case of the p53 protein, the MRF values were obtained first during the flow cytometer readout utilizing FACSDiva software and later analyzed using FCS Express 7 (De Novo Software, Pasadena, CA, USA). The equipment calibration was performed using the BD Cytometer Setup and Tracking Beads (BD Biosciences, San Diego, CA, USA).

caspase 3/7 = assay: Caspase 3/7 activity (FAM-FLICA, flow cytometry), MDA-MB-231; assay type: cell-based, human; settings: 24 h
Procedure: (§2) The FAM-FLICA® Caspase Assay kits (all from ImmunoChemistry Technologies, Bloomington, MN, USA) and flow cytometer (BD FACSCanto II, BD Biosciences Systems, San Jose, CA, USA) were used to evaluate the activity of caspase 3/7, 8, and 9. MCF-7 and MDA-MB-231 cells were treated with selenoesters under the study (EDAG-1 and EDAG-8) and a reference agent (cisplatin) at two different concentrations (0.5 and 1 µM; treatment duration: 24 h). Following this, cells were collected, washed twice with cold PBS, and resuspended in an Apoptosis Wash Buffer to a final concentration of 5 × 10^5 cells/mL. In the next step, 290 µL each of cell suspension was taken and transferred into tubes. Then 10 µL of FLICA solution diluted immediately before use (1:5 v/v, using PBS) was added to the cells, mixed by pipetting, and incubated in the dark for 1 h at 37 °C. After this time, the cells were washed twice with 2 mL Apoptosis Wash Buffer, centrifuged, and resuspended in 300 µL of the buffer. Thus, prepared samples were immediately analyzed using a BD FACSCanto II flow cytometer (10,000 events) with the FACSDiva 6.0 software (both from BD Biosciences Systems, San Jose, CA, USA). The equipment calibration was carried out using the BD Cytometer Setup and Tracking Beads (BD Biosciences, San Diego, CA, USA).

[2] = tested on: MDA-MB-231 breast cancer cells; assay: Mitochondrial membrane potential (JC-1, flow cytometry), MDA-MB-231; assay type: cell-based, human; settings: 24 h
Procedure: The entire cell staining and cytometric analysis procedures were performed according to the instructions provided with the kit. In the first step, the cells (1 × 10^6 cells/sample) were washed and resuspended in 0.5 mL of buffer containing 10 µg/mL JC-1 dye. Incubation was carried out for 15 min at room temperature, protected from light. Afterward, the cells were washed twice with buffer, resuspended in 0.5 mL PBS, and immediately analyzed using a flow cytometer (BD FACSCanto II; 10,000 events measured) and the FACSDiva 6.0 software (BD Biosciences Systems, San Jose, CA, USA) to count the percentage of cells with reduced ΔΨm. The equipment was calibrated with the BD Cytometer Setup and Tracking Beads (BD Biosciences, San Diego, CA, USA).

caspase 8 = assay: Caspase 8 activity (FAM-FLICA, flow cytometry), MCF-7; assay type: cell-based, human; settings: 24 h
Procedure: as §2

p53 = p53 protein expression by flow cytometry, MDA-MB-231; assay type: cell-based, human; settings: 24 h
Procedure: as §1

caspase 7 = assay: Caspase 3/7 activity (FAM-FLICA, flow cytometry), MCF-7; assay type: cell-based, human; settings: MCF-7 (lack caspase 3), 24 h
Procedure: as §2

| Compound | IC50 ([1]; 24 h incubation) | Bax positive cells ± SD (Bax; MDA-MB-231, 0.5 μM) | Bax positive cells ± SD (Bax; MDA-MB-231, 1 μM) | Active caspase 3/7 ± SD (cells) (caspase 3/7; MDA-MB-231, 0.5 μM) | Active caspase 3/7 ± SD (cells) (caspase 3/7; MDA-MB-231, 1 μM) | Decreased ΔΨm ± SD (cells) ([2]; MDA-MB-231, 0.5 μM) | Decreased ΔΨm ± SD (cells) ([2]; MDA-MB-231, 1 μM) | Active caspase 8 ± SD (cells) (caspase 8; MCF-7, 0.5 μM) | Active caspase 8 ± SD (cells) (caspase 8; MCF-7, 1 μM) | p53 protein expression, MRF (p53; MDA-MB-231, 0.5 μM) | p53 protein expression, MRF (p53; MDA-MB-231, 1 μM) | Active caspase 7 ± SD (cells) (caspase 7; 0.5 μM) | Active caspase 7 ± SD (cells) (caspase 7; 1 μM) | IC50 ([1]; Homo sapiens, 24 h) |
| --- | --- | --- | --- | --- | --- | --- | --- | --- | --- | --- | --- | --- | --- | --- |
| N.N.[Cl][Pt][Cl] [Cisplatin, reference compound] | > 5000 nM | 1.3 ± 0.3% | 1.4 ± 0.1% | 5.2 ± 0.5% | 5.2 ± 0.6% | 11.2 ± 0.9% | 12.9 ± 0.2% | 3.7 ± 0.2% | 4.1 ± 0.2% | 375.5 ± 3.5 | 423.5 ± 2.1 | 4.3 ± 0.3% | 4.6 ± 0.3% | – |
| CC(=O)C[Se]C(=O)c1ccc(C(=O)[Se]CC(C)=O)cc1 [EDAG-1, Se,Se-bis(2-oxopropyl) benzene-1,4-bis(carboselenoate)] | – | 12.5 ± 2.3% | 37.8 ± 5.1% | 9.2 ± 0.5% | 12.5 ± 0.4% | 29.2 ± 2.2% | 72.1 ± 0.9% | 6.1 ± 0.6% | 6.6 ± 1.1% | 559.3 ± 63.1 | 593.0 ± 10.8 | 5.7 ± 0.5% | 6.9 ± 0.5% | 720 ± 70 nM |
| CC(=O)C[Se]C(=O)c1cc(C(=O)[Se]CC(C)=O)cc(C(=O)[Se]CC(C)=O)c1 [EDAG-8, Se,Se,Se-tris-(2-oxopropyl) benzene-1,3,5-tris-(carboxyselenoate)] | – | 34.5 ± 3.4% | 60.3 ± 8.8% | 19.7 ± 0.6% | 32.2 ± 2.9% | 55.0 ± 3.0% | 92.5 ± 0.7% | 8.5 ± 0.8% | 19.4 ± 2.6% | 624.8 ± 49.7 | 661.5 ± 18.6 | 7.4 ± 0.8% | 16.3 ± 2.6% | 930 ± 70 nM |
